Test results published in US6406908B1, “Vanilloid receptor” (Novartis AG, priority 1999, dated 2002).
Like-named read-outs stand apart in the source and are kept apart here. Each block holds one compound with its values, some of them ahead of it.

Key:
[1] = target: T1, rVR1 (Rattus norvegicus, UniProt O35433); test: Aequorin luminescence assay, rVR1 in CHO cells; type: cell-based
T1 construct: expressed in transfected cells
Protocol: (§1) All the plates for use in a day are set up at the same time. The first plate is used in the assay after 2.5 h incubation with coelenterazine h. Subsequent plates are used at about 10 min intervals. […] At the start of the assay, the medium containing coelenterazine h is removed and replaced with 100 μl of HBSS buffered to pH 7.4 with 10 mM HEPES containing test compounds where appropriate. Cells are incubated for at least 10 min at RT. They are then placed in the measuring chamber of a luminometer (Wallac Microbeta Jet). Agonist is injected in a volume of 20 μl HBSS and the luminescence signal is collected for 20 sec.

[2] = target: T2, hVR1 (Homo sapiens, UniProt Q8NER1); test: Aequorin luminescence assay, hVR1 in CHO cells; type: cell-based
T2 construct: expressed in transfected cells
Protocol: as §1

[3] = system: Rat DRG neurones; conditions: inhibition of capsaicin response; from Wood et al (1988); read-out: IC50 (nM) (Ca uptake assay) Rat DRG neurones; cited from earlier work
[4] = system: Rat DRG neurones; test: 45Ca calcium uptake assay in primary cultures of DRG neurones; type: cell-based
Protocol: Primary cultures of adult DRG neurones are prepared according to standard protocols [Wood et al., J. Neuroscience 8:3208-3220 (1988)]. Cells are plated at a density of 2000 per well on 96 well view plates pre-coated with poly-ornithine and laminin and cultured in Hams F14 supplemented with 100 ng/ml NGF for four days. On the day of the assay, the cells are washed eight times in a Denley cell washer with calcium/magnesium free HBSS plus 10 mM HEPES, pH7.4. After washing the wells contain approximately 75 μl of buffer. […] For negative control, capsaicin is omitted. Samples are incubated at RT for 10 min, then washed four times with HBSS/10 mM HEPES pH 7.4. The remaining buffer is removed from the wells and replaced with 25 μl of 0.1% SDS. After about 10 min 200 μl of Microscint 40 scintillant is added and samples are counted on a Packard Topcount.

[5] = target: T3, human vanilloid receptor (Homo sapiens, UniProt Q8NER1); test: Activation of human vanilloid receptor expressed in mammalian cells; type: cell-based
T3 construct: expressed in transfected cells

[6] = target: T2, hVR1; test: Fluorometric Fluo-3 assay using the FLIPR, hVR1 in CHO cells; type: cell-based
Protocol: Cells resulting from Examples A1 or A2 are plated at a density of 50,000 cells/well in Costar Viewplates. The cells are incubated at 37° C. in a humidified atmosphere (5% CO2/95% air) for 24 h. Medium is removed by flicking the plates and replaced with 100 μl HBSS containing 2 μM Fluo-3, AM (Molecular Probes) in the presence of 2.5 mM probenicid (Sigma) and 0.02% pluronic acid (Molecular Probes). The cells are incubated at 37° C. in a humidified atmosphere (5% CO2/95% air) for 1 h. Plates are flicked to remove excess of Fluo-3, AM, washed twice with HBSS and refilled with 100 μl of HBSS containing screening compounds. Incubation in the presence of screening compounds lasts between 10 and 20 min. Plates are then placed in the cell plate stage of the FLIPR (Molecular Devices, Sunnyvale, Calif., USA). A baseline consisting in 5 measurements of 0.4 sec each (laser: excitation 488 nm at 0.6 W, CCD camera opening of 0.4 sec) is recorded.

[7] = inhibition of capsaicin response, capsaicin 1 μM

T2 sequence (Q8NER1 whole entry): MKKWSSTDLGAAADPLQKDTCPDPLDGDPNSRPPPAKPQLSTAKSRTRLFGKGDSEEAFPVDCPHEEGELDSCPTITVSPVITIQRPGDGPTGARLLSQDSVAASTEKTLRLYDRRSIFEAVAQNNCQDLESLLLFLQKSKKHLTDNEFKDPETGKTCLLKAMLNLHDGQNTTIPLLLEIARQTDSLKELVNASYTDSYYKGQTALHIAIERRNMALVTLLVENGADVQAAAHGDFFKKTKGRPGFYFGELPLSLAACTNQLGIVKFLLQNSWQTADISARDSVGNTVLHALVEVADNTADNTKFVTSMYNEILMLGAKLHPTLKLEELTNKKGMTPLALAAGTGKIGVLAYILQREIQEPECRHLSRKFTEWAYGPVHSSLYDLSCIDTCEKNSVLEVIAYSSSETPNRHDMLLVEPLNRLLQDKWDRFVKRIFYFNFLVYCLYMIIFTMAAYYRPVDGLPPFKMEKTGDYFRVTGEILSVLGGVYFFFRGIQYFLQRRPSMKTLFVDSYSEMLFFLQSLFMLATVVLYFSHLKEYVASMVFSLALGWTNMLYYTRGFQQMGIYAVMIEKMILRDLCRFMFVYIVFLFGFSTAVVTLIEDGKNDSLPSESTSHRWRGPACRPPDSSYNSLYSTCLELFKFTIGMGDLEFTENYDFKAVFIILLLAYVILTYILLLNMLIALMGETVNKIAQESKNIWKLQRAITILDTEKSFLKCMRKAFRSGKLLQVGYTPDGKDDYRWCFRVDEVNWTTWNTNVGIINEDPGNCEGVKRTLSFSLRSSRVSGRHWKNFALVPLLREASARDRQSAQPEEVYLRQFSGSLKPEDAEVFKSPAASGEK
T1 sequence (O35433 whole entry): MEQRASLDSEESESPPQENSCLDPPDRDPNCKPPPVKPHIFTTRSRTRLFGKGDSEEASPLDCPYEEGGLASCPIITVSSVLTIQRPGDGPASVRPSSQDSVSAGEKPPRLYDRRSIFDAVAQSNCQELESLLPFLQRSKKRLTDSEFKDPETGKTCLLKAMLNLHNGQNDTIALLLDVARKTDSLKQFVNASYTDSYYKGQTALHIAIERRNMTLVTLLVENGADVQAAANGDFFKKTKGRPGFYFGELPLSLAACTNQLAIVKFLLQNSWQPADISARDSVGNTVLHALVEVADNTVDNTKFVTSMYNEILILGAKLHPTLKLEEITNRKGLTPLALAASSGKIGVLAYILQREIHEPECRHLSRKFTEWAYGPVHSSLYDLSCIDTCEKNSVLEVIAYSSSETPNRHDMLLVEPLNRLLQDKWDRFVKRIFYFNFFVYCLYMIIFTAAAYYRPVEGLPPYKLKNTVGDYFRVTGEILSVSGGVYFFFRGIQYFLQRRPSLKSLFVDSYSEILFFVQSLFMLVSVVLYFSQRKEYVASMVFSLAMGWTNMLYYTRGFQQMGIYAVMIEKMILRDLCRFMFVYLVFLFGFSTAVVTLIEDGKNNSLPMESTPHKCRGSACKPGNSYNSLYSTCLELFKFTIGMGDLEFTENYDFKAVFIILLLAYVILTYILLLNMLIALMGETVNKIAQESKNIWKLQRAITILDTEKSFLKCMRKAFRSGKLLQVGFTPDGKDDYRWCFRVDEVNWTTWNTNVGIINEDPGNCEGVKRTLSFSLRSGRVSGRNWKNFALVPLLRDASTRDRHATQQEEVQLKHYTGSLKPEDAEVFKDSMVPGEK
T3 sequence (Q8NER1 whole entry): as the sequence (Q8NER1 whole entry) above

IC50 [1, 7]: 18 ± 8.3 nM
IC50 [2, 7]: 220 ± 32 nM
Blocking of capsaicin responses ([2]; measured as in Example B1, stated generally for the assays): effective blocker of capsaicin responses
Compound: N.N.N.N.N.N.N.N.N.N.N.N.N.N.[Cl-].[Cl-].[Cl-].[Cl-].[Cl-].[Cl-].[O-2].[O-2].[Ru+3].[Ru+3].[Ru+4] [Rr, Ruthenium red]
IC50 [3]: 50 nM

EC50 ([4]; 10 min): 170 ± 19 nM
Activation of the human vanilloid receptor [5]: activated by capsaicin
Compound: COc1cc(CNC(=O)CCCC/C=C/C(C)C)ccc1O [Capsaicin]

IC50 [1]: 320 ± 110 nM
IC50 [4]: 800 ± 40 nM
IC50 [6]: 130 ± 32 nM
IC50 [2]: 120 ± 12 nM
Block of activation by capsaicin, temperatures greater than 42° C. and pH less than 5.5 [5]: blocked substantially or completely
Compound: Oc1cc2c(cc1O)CN(C(=S)NCCc1ccc(Cl)cc1)CCC2 [Cz, Capsazepine]
